Results taken from article PMC7041945, “Misfolded proteins bind and activate death receptor 5 to trigger apoptosis during unresolved endoplasmic reticulum stress” (eLife, 2020).

Tests used:
[1] = tested on: CHOP, BiP, and DR5 mRNA in HCT116 cells; test: qPCR of UPR target transcripts (CHOP, BiP, DR5); type: cell-based, Homo sapiens
Procedure: Cells were grown in 6-well plates and harvested with 0.5 ml of TRIzol reagent (Life Technologies) per manufacturer’s protocol to extract RNA. For cDNA synthesis, 500 ng of total RNA was reverse transcribed with 2 μl of the SuperScript VILO master mix (Life Technologies # 11755050) in a total reaction volume of 10 μl following the manufacturer’s protocol for reaction temperature and duration. The reverse transcription product was diluted to 200 μl with 10 mM Tris-HCl pH 8.2 and used at 1:100 dilution for subsequent RT-PCR reactions.
PCR samples were prepared as described by manufacturer’s protocols from iQ SYBR Green Supermix (BioRad #17088800).
For each experiment, qRT-PCR reactions were set up in triplicate and run using a CFX96 Real Time System (Bio-Rad). Quantitation cycles were determined with CFX Manager 3.0 software (Bio-Rad) and then normalized to GAPDH as an internal control.

DR5 = test: GFP immunoprecipitation: DR5 (FADD, caspase 8) recovered with GFP-tagged protein, Western blot; type: cell-based, Homo sapiens; conditions: for fraction IP'ed: beads/input
Procedure: 15 cm dishes were seeded with 4 million HCT116 cells and allowed to recover for 18 hr prior to transfection. Samples were then transfected for 24 hr with the GFP-tagged ER trafficked protein, cytosolic GFP, or empty vector. To harvest apoptotic and living cells for each sample, all media and washes were collected. Cells were scraped in 2 ml of cold PBS and combined with the media and washes. Samples were centrifuged to pellet cells, washed with 1 ml cold PBS, and flash frozen in liquid N2 prior to lysis.
The cell pellets were resuspended in 750 μl of 30 mM HEPES pH 7.2, 150 mM NaCl, 1% Triton X-100 with 1x Roche protease inhibitor cocktail (if used subsequently for caspase glo 8 assay) or with 5x Roche protease inhibitor cocktail (if used for immunoblotting). The cells were lysed by mechanical shearing through a 25G needle for 13–15 plunges followed by incubation on ice for 30 min. The lysate was centrifuged at 2000xg for 5 min to remove debris and then incubated with 30 μl of GFP-Trap magnetic agarose beads (Chromotek gtma-20) for 4 hr at 4°C. The beads were then washed with 750 μl of lysis buffer for 10 min at 4°C for three rounds.
For Western blots, samples were eluted by adding 35 μl of non-reducing SDS gel loading buffer (50 mM Tris-HCl (pH 6.8), 2% SDS, 0.1% bromophenol blue, 10% glycerol) and incubated for 10 min at 70°C. The beads were then magnetically removed from the eluted sample before adding DTT to a final concentration of 25 mM. The entire sample was loaded onto the gel and immunoblotted for DR5, caspase 8, and GFP, in that order.

[2] = 24 hr, Rep 2, relative to empty traffo, mean of 3 replicates
[3] = 24 hr, Rep 2, relative to empty traffo, replicate 1
[4] = 24 hr, Rep 2, relative to empty traffo, replicate 2
[5] = 24 hr, Rep 2, relative to empty traffo, replicate 3
[6] = HCT116, 100 nM for 24 hours, avg., norm to GAPDH
[7] = HCT116, 100 nM for 24 hours, replicate 1
[8] = HCT116, 100 nM for 24 hours, replicate 2
[9] = HCT116, 100 nM for 24 hours, replicate 3
[10] = HCT116, 100 nM for 24 hours, vs GAPDH, replicate 1
[11] = HCT116, 100 nM for 24 hours, vs GAPDH, replicate 2
[12] = HCT116, 100 nM for 24 hours, vs GAPDH, replicate 3
[13] = HCT116, 100 nM Tg for 24 hours, mean of 3 replicates
[14] = HCT116, 100 nM Tg for 24 hours, replicate 1
[15] = HCT116, 100 nM Tg for 24 hours, replicate 2
[16] = HCT116, 100 nM Tg for 24 hours, replicate 3
[17] = qPCR Rep 2, WT MPZ GFP 1000 ng, or empty traffo + Tg, mean of 3
[18] = qPCR Rep 2, WT MPZ GFP 1000 ng, or empty traffo + Tg, replicate 1
[19] = qPCR Rep 2, WT MPZ GFP 1000 ng, or empty traffo + Tg, replicate 2
[20] = qPCR Rep 2, WT MPZ GFP 1000 ng, or empty traffo + Tg, replicate 3
[21] = qPCR Rep 2, WT MPZ GFP 1000 ng, or empty traffo + Tg, vs avg GAPDH, replicate 1
[22] = qPCR Rep 2, WT MPZ GFP 1000 ng, or empty traffo + Tg, vs avg GAPDH, replicate 2
[23] = qPCR Rep 2, WT MPZ GFP 1000 ng, or empty traffo + Tg, vs avg GAPDH, replicate 3
[24] = GFP IP, HCT116, average of Rep 1 and Rep 2, SEM in separate column
[25] = GFP IP, HCT116, band intensity, Rep 1

C/C=C(/C)C(=O)O[C@H]1C(C)=C2[C@H]([C@@H]1OC(=O)CCCCCCC)[C@@](C)(OC(C)=O)C[C@H](OC(=O)CCC)[C@@]1(O)[C@H]2OC(=O)[C@@]1(C)O [thapsigargin, reference compound]
avg. fold induction CHOP [1, 2]: 2.825
avg. fold induction DR5 total [1, 2]: 2.175
fold induction CHOP [1, 3]: 2.975
fold induction DR5 total [1, 3]: 2.222
fold induction CHOP [1, 4]: 2.927
fold induction DR5 total [1, 4]: 2.286
fold induction CHOP [1, 5]: 2.573
fold induction DR5 total [1, 5]: 2.0182
2^-(deltaCq) CHOP ([1]; 24 hr, Rep 2, replicate 1): 0.03423
2^-(deltaCq) DR5 total ([1]; 24 hr, Rep 2, replicate 1): 0.06479
Cq CHOP ([1]; 24 hr, Rep 2, replicate 1): 23.6206
Cq DR5 total ([1]; 24 hr, Rep 2, replicate 1): 22.7
Cq(sample) - avg Cq(GAPDH), CHOP ([1]; 24 hr, Rep 2, replicate 1): 4.869
Cq(sample) - avg Cq(GAPDH), DR5 total ([1]; 24 hr, Rep 2, replicate 1): 3.948
2^-(deltaCq) CHOP ([1]; 24 hr, Rep 2, replicate 2): 0.03367
2^-(deltaCq) DR5 total ([1]; 24 hr, Rep 2, replicate 2): 0.06665
Cq CHOP ([1]; 24 hr, Rep 2, replicate 2): 23.6444
Cq DR5 total ([1]; 24 hr, Rep 2, replicate 2): 22.6592
Cq(sample) - avg Cq(GAPDH), CHOP ([1]; 24 hr, Rep 2, replicate 2): 4.892
Cq(sample) - avg Cq(GAPDH), DR5 total ([1]; 24 hr, Rep 2, replicate 2): 3.9072
2^-(deltaCq) CHOP ([1]; 24 hr, Rep 2, replicate 3): 0.0296
2^-(deltaCq) DR5 total ([1]; 24 hr, Rep 2, replicate 3): 0.05885
Cq CHOP ([1]; 24 hr, Rep 2, replicate 3): 23.8304
Cq DR5 total ([1]; 24 hr, Rep 2, replicate 3): 22.839
Cq(sample) - avg Cq(GAPDH), CHOP ([1]; 24 hr, Rep 2, replicate 3): 5.078
Cq(sample) - avg Cq(GAPDH), DR5 total ([1]; 24 hr, Rep 2, replicate 3): 4.087
avg. fold induction relative to empty traffo, BiP [1, 6]: 12.0843 fold
avg. fold induction relative to empty traffo, CHOP [1, 6]: 7.5114 fold
avg. fold induction relative to empty traffo, DR5 total [1, 6]: 5.041 fold
fold induction relative to empty traffo, BiP [1, 7]: 11.9233 fold
fold induction relative to empty traffo, CHOP [1, 7]: 7.102 fold
fold induction relative to empty traffo, DR5 total [1, 7]: 5.4959 fold
fold induction relative to empty traffo, BiP [1, 8]: 12.5755 fold
fold induction relative to empty traffo, CHOP [1, 8]: 7.658 fold
fold induction relative to empty traffo, DR5 total [1, 8]: 4.966 fold
fold induction relative to empty traffo, BiP [1, 9]: 11.754 fold
fold induction relative to empty traffo, CHOP [1, 9]: 7.775 fold
fold induction relative to empty traffo, DR5 total [1, 9]: 4.661 fold
2^-(deltaCq) BiP [1, 10]: 1.038
2^-(deltaCq) CHOP [1, 10]: 0.07495
2^-(deltaCq) DR5 total [1, 10]: 0.08912
2^-(deltaCq) BiP [1, 11]: 1.095
2^-(deltaCq) CHOP [1, 11]: 0.08082
2^-(deltaCq) DR5 total [1, 11]: 0.08052
2^-(deltaCq) BiP [1, 12]: 1.023
2^-(deltaCq) CHOP [1, 12]: 0.08206
2^-(deltaCq) DR5 total [1, 12]: 0.07558
GAPDH avg. fold induction relative to empty traffo [1, 13]: 1.006
GFP avg. fold induction relative to empty traffo [1, 13]: 0.1103
ERO1alpha (386+387) avg. fold induction relative to empty traffo ([1]; HCT116, 100 nM Tg for 24 hours, melt curves for these primers showed two peaks, mean of 3 replicates): 0.8588
ERO1alpha (386+387) fold induction relative to empty traffo ([1]; HCT116, 100 nM Tg for 24 hours, melt curves for these primers showed two peaks, replicate 1): 0.8482
ERO1alpha (386+387) fold induction relative to empty traffo ([1]; HCT116, 100 nM Tg for 24 hours, melt curves for these primers showed two peaks, replicate 2): 0.8572
ERO1alpha (386+387) fold induction relative to empty traffo ([1]; HCT116, 100 nM Tg for 24 hours, melt curves for these primers showed two peaks, replicate 3): 0.8711
GADD34 (388+389) fold induction relative to empty traffo [1, 14]: 11.4671
GAPDH fold induction relative to empty traffo [1, 14]: 1.083
GFP fold induction relative to empty traffo [1, 14]: 0.1161
GADD34 (388+389) fold induction relative to empty traffo [1, 15]: 11.4954
GAPDH fold induction relative to empty traffo [1, 15]: 1.089
GFP fold induction relative to empty traffo [1, 15]: 0.1176
GADD34 (388+389) fold induction relative to empty traffo [1, 16]: 10.9924
GAPDH fold induction relative to empty traffo [1, 16]: 0.847
GFP fold induction relative to empty traffo [1, 16]: 0.09722
avg. fold induction relative to WT MPZ DMSO, BiP [1, 17]: 6.727 fold
avg. fold induction relative to WT MPZ DMSO, CHOP [1, 17]: 9.899 fold
avg. fold induction relative to WT MPZ DMSO, DR5 total [1, 17]: 3.489 fold
fold induction relative to WT MPZ DMSO, BiP [1, 18]: 6.3 fold
fold induction relative to WT MPZ DMSO, CHOP [1, 18]: 10.9106 fold
fold induction relative to WT MPZ DMSO, DR5 total [1, 18]: 3.205 fold
fold induction relative to WT MPZ DMSO, BiP [1, 19]: 6.984 fold
fold induction relative to WT MPZ DMSO, CHOP [1, 19]: 9.299 fold
fold induction relative to WT MPZ DMSO, DR5 total [1, 19]: 3.841 fold
fold induction relative to WT MPZ DMSO, BiP [1, 20]: 6.897 fold
fold induction relative to WT MPZ DMSO, CHOP [1, 20]: 9.4871 fold
fold induction relative to WT MPZ DMSO, DR5 total [1, 20]: 3.4208 fold
2^-(deltaCq) BiP [1, 21]: 1.043
2^-(deltaCq) CHOP [1, 21]: 0.04115
2^-(deltaCq) DR5 total [1, 21]: 0.04765
2^-(deltaCq) BiP [1, 22]: 1.156
2^-(deltaCq) CHOP [1, 22]: 0.03507
2^-(deltaCq) DR5 total [1, 22]: 0.05711
2^-(deltaCq) BiP [1, 23]: 1.142
2^-(deltaCq) CHOP [1, 23]: 0.03578
2^-(deltaCq) DR5 total [1, 23]: 0.05086

FTWRYQPEGGRDAISIFHYA [MPZ-ecto peptide-eGFP, expressed construct: MPZ ectodomain replaced by the MPZ-ecto peptide, GFP-tagged]
% IP'ed, average (DR5; [24]): 7.7348%
fraction IP'ed, average (DR5; [24]): 0.07735
input (*dilution factor) (DR5; GFP IP, HCT116, band intensity, background subtracted, divided by dilution factor 0.1, Rep 2): 64608140
beads (*dilution factor) (DR5; GFP IP, HCT116, band intensity, background subtracted, divided by dilution factor 0.25, Rep 2): 5226200
beads (*diluton factor) (DR5; [25]): 10106176
input (*dilution factor) (DR5; [25]): 136930440
fraction IP'ed (DR5; GFP IP, HCT116, Rep 1): 0.07381
fraction IP'ed (DR5; GFP IP, HCT116, Rep 2): 0.08089
Mean ± SEM of fraction IP'ed (DR5; GFP IP, HCT116, n=2, from unpaired t test sheet): 0.07735 ± 0.003543, n=2
DR5 complex proteins in GFP immunoprecipitates (DR5; HCT116, 24 hr post-transfection): enriched for DR5 relative to the Glu-containing mutant peptides
DR5 beads (*diluton factor) (DR5; Rep 1, DR5 blot densitometry of beads (GFP IP), background subtracted, adjusted for dilution factor 0.25): 10106176
DR5 input (*dilution factor) (DR5; Rep 1, DR5 blot densitometry of input, background subtracted, adjusted for dilution factor 0.1): 136930440
DR5 fraction IP'ed (DR5; Rep 1, GFP IP, beads over input): 0.07381
